Tests used:
[1] = test system: nucleotide excision repair in HeLa cells; assay: In vivo excision assay with anti-BrdU antibody immunoprecipitation; format: cell-based, human; conditions: for excised oligomers (nominal 26-mer) precipitated by anti-BrdU antibodies: 10 μM thymidine analog, 24 h, no UV
Protocol: (§1) UV Irradiation and Thymidine analog treatment: HeLa cells were grown to ˜80% confluence, culture medium was removed, cells were washed twice with PBS, and then were placed under a GE germicidal lamp emitting primarily 254-nm UV light (1 J/m^2/sec) connected with a digital timer for 20sec (20 J/m^2 in total). Cells were collected after 1 hour repair. Thymidine analogs were dissolved in sterile PBS (BrdU, EdU, CldU) or DMSO (IdU, F-ara-EdU, AmdU), and then added to cell culture medium at final concentration of 10 μM for indicated times.
(§2) In vivo excision assay: For in vivo excision assay with BrdU antibody, low molecular DNAs isolated by Hirt procedure as previously described (ref 17) were subject to immunoprecipitation with anti-BrdU antibody. For in vivo excision assay with TFIIH antibody, cells were lysed in buffer A (25 mM HEPES at pH7.9, 100 mM KCl, 12 mM MgCl2, 0.5 mM EDTA, 2 mM DTT, 12.5% glycerol, 0.5% NP-40), and excised oligonucleotides complexed with TFIIH protein were immunoprecipitated with TFIIH antibody. Purified oligonucleotides from BrdU IP or TFIIH IP were 3′ end-labeled by terminal deoxynucleotidyl transferase (TdT), α-^32P-ATP with a standard 50 mer oligonucleotide as spike internal control. After phenol-chloroform extraction and ethanol precipitation, labeled DNAs were fractionated with 12% denaturing sequencing gels.

[2] = test system: nucleotide excision repair in HeLa cells; assay: In vivo excision assay with TFIIH antibody immunoprecipitation; format: cell-based, human; conditions: for substrate for excision repair: when incorporated into the DNA of replicating cells, summary statement
Protocol: as §1, §2

NHF1 wild-type cells = assay: In vivo excision assay (anti-BrdU IP) in wild-type NHF1 cells; format: cell-based, human; conditions: wild type NHF1, 10 μM EdU, 24 h
Source text: (§3) Cell lines: NHF1 cells, telomerase-immortalized normal human fibroblast monolayers were obtained as described previously (ref 17), XPA-/-XPC-/-CSB-/- triple knock out NHF1 cells were generated using CRISPR Cas9 system with gRNAs (XPA: […] (SEQ ID NO:1); CSB: […] (SEQ ID NO:2); XPC: […] (SEQ ID NO:3)). The HeLa cell line was from the American Type Culture Collection (ATCC). NHF1 and HeLa cells were maintained in Dulbecco's modified Eagle's medium (DMEM) supplemented with 10% fetal bovine serum at 37° C. in a 5% CO2 humidified chamber.
as §2

[3] = test system: XPA-/-XPC-/-CSB-/- NHF1 cells; assay: In vivo excision assay (anti-BrdU IP) in excision repair defective NHF1 cells; format: cell-based, human; conditions: XPA-/-XPC-/-CSB-/- mutant NHF1, 10 μM EdU, 24 h
Source text: as §3, §2

HeLa cells [4] = assay: Slot blot assay of thymidine analog incorporation into genomic DNA; format: cell-based, human; conditions: 10 μM thymidine analog, 24 h, anti-BrdU antibody
Protocol: Slot blot assay: HeLa cells were plated in 100 mm plates and treated with 10 μM thymidine analogs for 24 h. Genomic DNA was purified from cell pellets using QIAamp DNA mini kit (Qiagen, 51306). DNA concentrations were determined using a Qubit 3.0 fluorometer. 250 ng of each DNA was diluted with TE buffer (10 mM Tris-HCl pH8, 1 mM EDTA) to a total volume of 250 μL, then boiled at 90° C. for 10 min and cooled in ice water immediately. 250 μL cold ammonium acetate (2 M) was added to neutralize DNA, and then DNA samples were loaded onto nitrocellulose membranes using a slot blot apparatus. Membranes were transferred to a vacuum oven and baked for 1.5 h at 80° C., then blocked with 5% dried milk and incubated with either anti-BrdU antibody (1:1000) or anti-ssDNA antibody (1:5000) as loading control overnight at 4° C. After incubating with a horseradish peroxidase (HRP) labeled secondary antibody (1:10000) for 1 h, chemiluminescent signal was captured using a Bio-Rad ChemiDoc XRS imaging device.

[5] = test system: Chinese hamster ovary (CHO) AA8 cell free extract excision nuclease; assay: In vitro excision assay with mammalian cell-free extract; format: biochemical; conditions: 140bp duplex substrates, CHO AA8 CFE, three biological replicates
Protocol: In vitro excision assay: Radiolabeled 140-bp full length undamaged, (6-4) PP, and EdU damaged substrates were prepared, and in vitro excision assay with cell-free extract from Chinese hamster ovary (CHO) AA8 cells were carried out as previously described (ref 39). Briefly, Chinese hamster ovary (CHO) AA8 cell free extract (CFE) was prepared by the method of Manley (ref 42). Linear double-stranded DNA substrates (140bp in length) were prepared with centrally located (6-4) photoproduct or EdU as described previously (ref 43). The sequence of the centrally located 12-mers was […]; SEQ ID NO:4. For the (6-4) substrate, the (6-4) lesion was between T5 and T6. Single EdU was at T6 and, double EdU lesions were at T5 and T6. Unmodified 12mer and EdU containing 12mers were purchased from Integrated DNA Technologies.
The excision reaction with AA8 CFE (75 μg) was conducted with 20 fmol of 140bp substrates, 18 mM HEPES-KOH (pH 7.9), 24 mM KCl, 2 mM MgCl2, 4 mM ATP at 30° C. for 60 minutes as described (ref 35). After the excision reaction, the mixture was incubated with 0.34% SDS and 20 µg/ml Proteinase K at 55-60° C. for 15 minutes, then DNA was extracted with phenol:chloroform:isoamyl alcohol and precipitated with ethanol, resuspended in formamide/dye mixture, and separated with a 10% sequencing gel. Quantification of the signal intensities was done by using ImageJ.

Taq DNA polymerase = Taq DNA polymerase (Thermus aquaticus, UniProt P19821); assay: PCR of EdU-substituted genomic DNA with Taq DNA polymerase; format: biochemical; conditions: genomic DNA of cells treated with EdU for 24 hrs, CSA gene (946bp), 30 cycles
HeLa cells [6] = assay: XR-seq of EdU excision products; format: cell-based, human; conditions: for TS/NTS ratio genome-wide: RNA Pol II transcribed genes
[7] = test system: an osteosarcoma and a glioblastoma cell line; conditions: cited from earlier work
[8] = test system: primary human glioblastoma cell; conditions: same dose as Temozolomide; cited from earlier work
[9] = compared with other thymidine analogs used to study replication; cited from earlier work
[10] = in vivo; cited from earlier work
[11] = HeLa cells, 10 μM thymidine analog, 24 h

Taq DNA polymerase, sequence (P19821 whole entry): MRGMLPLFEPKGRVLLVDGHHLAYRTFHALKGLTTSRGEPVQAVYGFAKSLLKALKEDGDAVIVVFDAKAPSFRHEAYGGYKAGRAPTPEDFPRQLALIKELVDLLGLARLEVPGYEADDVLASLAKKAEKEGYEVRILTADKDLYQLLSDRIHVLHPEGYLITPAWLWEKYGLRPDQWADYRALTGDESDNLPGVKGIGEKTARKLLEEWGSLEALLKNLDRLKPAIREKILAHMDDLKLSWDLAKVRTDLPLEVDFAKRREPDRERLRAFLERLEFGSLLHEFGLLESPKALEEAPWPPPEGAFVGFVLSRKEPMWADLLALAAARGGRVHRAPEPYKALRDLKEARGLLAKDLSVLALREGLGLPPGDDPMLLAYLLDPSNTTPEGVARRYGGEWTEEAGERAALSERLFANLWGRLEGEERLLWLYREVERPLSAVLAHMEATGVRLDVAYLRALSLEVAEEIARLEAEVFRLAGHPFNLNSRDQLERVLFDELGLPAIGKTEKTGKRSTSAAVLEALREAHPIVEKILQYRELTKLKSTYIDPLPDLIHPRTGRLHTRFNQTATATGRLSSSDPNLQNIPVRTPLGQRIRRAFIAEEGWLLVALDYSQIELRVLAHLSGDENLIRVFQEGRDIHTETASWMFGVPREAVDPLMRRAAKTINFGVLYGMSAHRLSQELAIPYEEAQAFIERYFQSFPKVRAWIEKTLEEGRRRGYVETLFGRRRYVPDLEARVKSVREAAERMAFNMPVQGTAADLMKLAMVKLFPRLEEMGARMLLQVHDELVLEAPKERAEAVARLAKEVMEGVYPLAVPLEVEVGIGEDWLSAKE

C#Cc1cn([C@H]2C[C@H](O)[C@@H](CO)O2)c(=O)[nH]c1=O [EdU, 5-Ethynyl-2′-deoxyuridine]
time of peak level of excised EdU-containing fragments ([1]; 10 μM EdU for 3 to 48 hrs): 24 h | length of excised oligonucleotides under yellow light and ordinary room light ([1]; 10 μM EdU, 24 hours, both light conditions): 22-30 nts | excised oligomers (nominal 26-mer) precipitated by anti-BrdU antibodies [1]: precipitated oligomers in the form of nominal 26-mer | time that EdU removal continues after pulse labeling ([1]; 4 hours EdU, then EdU-free medium, up to 12 hrs): at least 12 hrs | length of excision products isolated with anti-TFIIH antibodies [2, 11]: 25-32 nucleotide | substrate for excision repair [2]: substrate for excision repair | excision product (NHF1 wild-type cells): excision product seen | excision product [3]: no excision product | incorporation into replicating HeLa cells (HeLa cells [4]): similarly incorporated | in vitro excision (percentage of excision relative to total amount of substrate) [5]: efficient substrate for the mammalian excision nucleases | PCR product from EdU-substituted genomic DNA template (Taq DNA polymerase): produced full-size fragments | XR-seq reads over active promoter, weak promoter, strong enhancer and transcription transition region (HeLa cells [6]; 15 ChromHMM chromatin states, 6 h to 48 h): relatively high | TS/NTS ratio genome-wide (HeLa cells [6]; 6 h EdU treatment): ~2.5 | TS/NTS ratio genome-wide (HeLa cells [6]; 48 h EdU treatment): ~1.2 | time at which TS/NTS repair ratio peaks (HeLa cells [6]; HACD3, DHFR, and MSH3 genes): 6 h | peak of length distribution of excision products (HeLa cells [6]; anti-TFIIH IP, XR-seq): 25-27 nucleotides | repair of EdU at DNase hypersensitivity peaks (HeLa cells [6]; gene and intergenic regions): significantly enriched | suppressing cell proliferation compared with BrdU [7]: outperform BrdU | apoptosis relative to Temozolomide [8]: 3-5 fold | strand breaks relative to Temozolomide [8]: 3-5 fold | toxicity [9]: highly toxic | crossing of the blood-brain-barrier [10]: crosses the blood-brain-barrier

C#Cc1cn([C@@H]2O[C@H](CO)[C@@H](O)[C@@H]2F)c(=O)[nH]c1=O [F-ara-EdU, (2′S)-2-Deoxy-2-fluoro-5-ethynyluridine]
excised by human nucleotide excision repair (TFIIH IP) [2, 11]: only EdU is excised | substrate for excision repair [2]: not to be substrates for excision repair

O=c1[nH]c(=O)n([C@H]2C[C@H](O)[C@@H](CO)O2)cc1Br [BrdU, 5-Bromo-2′-deoxyuridine]
excised oligomers (nominal 26-mer) precipitated by anti-BrdU antibodies [1]: not | substrate for excision repair [2]: not to be substrates for excision repair | incorporation into replicating HeLa cells (HeLa cells [4]): similarly incorporated

[N-]=[N+]=NCc1cn([C@H]2C[C@H](O)[C@@H](CO)O2)c(=O)[nH]c1=O [AmdU, 5-(azidomethyl)-2′-deoxyuridine]
excised by human nucleotide excision repair (TFIIH IP) [2, 11]: only EdU is excised | substrate for excision repair [2]: not to be substrates for excision repair

O=c1[nH]c(=O)n([C@H]2C[C@H](O)[C@@H](CO)O2)cc1I [IdU, 5-Iodo-2′-deoxyuridine]
excised oligomers (nominal 26-mer) precipitated by anti-BrdU antibodies [1]: not | substrate for excision repair [2]: not to be substrates for excision repair | incorporation into replicating HeLa cells (HeLa cells [4]): similarly incorporated

O=c1[nH]c(=O)n([C@H]2C[C@H](O)[C@@H](CO)O2)cc1Cl [CldU, 5-Chloro-2′-deoxyuridine]
excised oligomers (nominal 26-mer) precipitated by anti-BrdU antibodies [1]: not | substrate for excision repair [2]: not to be substrates for excision repair | incorporation into replicating HeLa cells (HeLa cells [4]): similarly incorporated

Reference: patent US20260034158A1, “METHODS OF TREATING CANCER OF THE CENTRAL NERVOUS SYSTEM COMPRISING 5-ETHYNYL-2'-DEOXYURIDINE” (The University of North Carolina at Chapel Hill, priority 2022, published 2026)
